The target of the test is T1, human NaV1.6 (hNaV1.6) (Homo sapiens, UniProt Q9UQD0).
T1 construct: expressed in transfected cells; host or cells: HEK-293 (G418 selection)
Briefly: Modulation of late sodium current (INaL) at hNaV1.6, PatchXpress electrophysiology. To be noted: HEK293, HEK-293 cells expressing recombinant human NaV1.6, late current evoked by 300 nM ATX-II, read-out: NaV 1.6 Assay Data (percent inhibition of INaL at hNaV1.6). The class given is cell-based. As to the method: Functional characterization of exemplary compounds to modulate INaL expressed by the NaV1.6 voltage-gated sodium channel was accomplished using the PatchXpress™ high throughput electrophysiology platform (Molecular Devices, Sunnyvale, CA). HEK-293 cells expressing recombinant, human NaV1.6 (hNaV1.6) were grown in DMEM/high-glucose Dulbecco's modified, 10% FBS, 2 mM sodium pyruvate, 10 mM HEPES and 400 μg/mL G418. Cells were grown to 50%-80% confluency prior to harvesting. Trypsinized cells were washed, allowed to recover for 1 hour and then resuspended in extracellular recording solution at a concentration of 1×10^6 cells/ml. The onboard liquid handling facility of the PatchXpress was used for dispensing cells and applying test compounds. NaV late currents were evoked by the application of 300 nM ATX-II. INaL was evoked by depolarizing pulses to 0 mV for 200 ms from a non-inactivating holding potential (e.g., −120 mV) at a frequency of 0.1 Hz. INaL amplitude and stability were determined by analyzing the mean current amplitude over the final 20 ms of the test pulse. Following steady state block with exemplary compounds (e.g., as described herein), a Na+ free solution containing an impermeant cation (e.g., Choline or NDMG) was added to confirm the identity of the sodium current. Percent steady-state inhibition of INaL was calculated as: […], where INaL_compound and INaL_control represent INaL recorded in the presence or absence of compound, respectively.
Results from this assay relating to percent inhibition of INaL at hNaV1.6 (measured using a procedure similar to described above but using HEK-293 cells expressing recombinant, human NaV 1.6 (h NaV 1.6) at 1 μM are summarized in Table 1 below. In this table, “A” indicates inhibition of less than 30%; “B” indicates inhibition of between about 30% to about 70%; and “C” indicates inhibition of greater than 70%. “N/A” indicates not available.

Molecules are shown by their SMILES.

Usually inhibition stands for the percentage by which the read-out fell short of the control.

T1 sequence (Q9UQD0 whole entry): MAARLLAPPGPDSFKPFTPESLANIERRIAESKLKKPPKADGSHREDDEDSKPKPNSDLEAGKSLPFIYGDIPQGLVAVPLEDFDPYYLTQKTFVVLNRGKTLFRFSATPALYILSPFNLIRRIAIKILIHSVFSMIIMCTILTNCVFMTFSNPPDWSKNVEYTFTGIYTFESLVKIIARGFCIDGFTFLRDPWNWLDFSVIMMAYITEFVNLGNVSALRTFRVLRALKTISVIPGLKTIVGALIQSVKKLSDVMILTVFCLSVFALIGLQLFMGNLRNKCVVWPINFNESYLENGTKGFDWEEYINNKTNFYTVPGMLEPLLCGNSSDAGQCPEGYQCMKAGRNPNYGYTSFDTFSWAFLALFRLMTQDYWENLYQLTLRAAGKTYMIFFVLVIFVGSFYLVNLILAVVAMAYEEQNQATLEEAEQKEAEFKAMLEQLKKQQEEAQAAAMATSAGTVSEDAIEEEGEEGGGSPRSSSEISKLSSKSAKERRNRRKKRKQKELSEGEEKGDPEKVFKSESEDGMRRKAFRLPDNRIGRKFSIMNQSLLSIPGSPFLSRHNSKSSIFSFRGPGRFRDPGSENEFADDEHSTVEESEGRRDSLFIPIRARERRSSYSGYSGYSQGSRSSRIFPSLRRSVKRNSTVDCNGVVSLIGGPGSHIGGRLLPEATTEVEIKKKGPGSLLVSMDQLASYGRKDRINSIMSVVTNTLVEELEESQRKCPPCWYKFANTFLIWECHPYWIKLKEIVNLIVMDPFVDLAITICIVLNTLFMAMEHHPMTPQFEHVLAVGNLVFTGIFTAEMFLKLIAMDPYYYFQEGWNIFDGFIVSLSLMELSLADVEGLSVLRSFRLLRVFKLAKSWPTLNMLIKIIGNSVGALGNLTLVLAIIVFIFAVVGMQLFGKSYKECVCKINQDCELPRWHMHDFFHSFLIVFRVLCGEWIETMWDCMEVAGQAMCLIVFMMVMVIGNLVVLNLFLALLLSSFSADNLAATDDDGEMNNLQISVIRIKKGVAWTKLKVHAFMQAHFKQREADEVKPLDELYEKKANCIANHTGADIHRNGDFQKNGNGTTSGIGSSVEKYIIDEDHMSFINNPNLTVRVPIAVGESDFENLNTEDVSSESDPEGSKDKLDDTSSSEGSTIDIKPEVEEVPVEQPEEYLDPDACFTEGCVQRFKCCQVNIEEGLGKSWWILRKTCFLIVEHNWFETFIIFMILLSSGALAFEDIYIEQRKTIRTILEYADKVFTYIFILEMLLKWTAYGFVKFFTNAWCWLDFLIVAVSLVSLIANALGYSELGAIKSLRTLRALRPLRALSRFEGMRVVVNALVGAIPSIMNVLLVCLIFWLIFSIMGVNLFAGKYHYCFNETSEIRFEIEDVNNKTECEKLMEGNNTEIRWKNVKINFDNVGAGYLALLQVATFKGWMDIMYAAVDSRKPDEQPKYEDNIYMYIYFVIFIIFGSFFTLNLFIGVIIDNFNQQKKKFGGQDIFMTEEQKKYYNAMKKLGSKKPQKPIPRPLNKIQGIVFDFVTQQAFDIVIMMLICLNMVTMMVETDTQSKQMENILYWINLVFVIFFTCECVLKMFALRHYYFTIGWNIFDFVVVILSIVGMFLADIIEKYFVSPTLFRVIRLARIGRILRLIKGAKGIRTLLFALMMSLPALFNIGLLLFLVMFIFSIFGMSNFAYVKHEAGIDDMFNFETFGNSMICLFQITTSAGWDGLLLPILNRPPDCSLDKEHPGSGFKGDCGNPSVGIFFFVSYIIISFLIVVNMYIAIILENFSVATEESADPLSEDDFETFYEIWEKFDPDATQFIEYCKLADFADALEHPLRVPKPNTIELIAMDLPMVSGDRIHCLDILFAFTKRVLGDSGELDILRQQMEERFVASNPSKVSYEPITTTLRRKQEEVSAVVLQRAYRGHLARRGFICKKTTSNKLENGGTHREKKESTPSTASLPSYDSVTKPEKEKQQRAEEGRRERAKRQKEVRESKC

With `COC(F)(F)c1nnc2cnc(-c3ccc(O[C@H](C4CC4)C(F)(F)F)nc3)cn12` (single isomer, unassigned) [Compound 5], the inhibition at 1 µM is above 70%.
Consider `COC(F)(F)c1nnc2cnc(-c3ccc(O[C@@H](C4CC4)C(F)(F)F)nc3)cn12` (single isomer, unassigned) [Compound 6], for which the inhibition at 1 µM is above 70%.
Under `COC(F)(F)c1nnc2cnc(-c3ccc(O[C@H](C)C(F)F)nc3)cn12` (single isomer, unassigned) [Compound 9] stands above 70%; under `COC(F)(F)c1nnc2cnc(-c3ccc(O[C@@H](C)C(F)F)nc3)cn12` (single isomer, unassigned) [Compound 10], above 70%.
As for `CC[C@@H](Oc1ccc(-c2cn3c(C(F)(F)OC)nnc3cn2)cn1)C(F)(F)F` (single isomer, unassigned) [Compound 13], the figure is above 70%; as for `CC[C@H](Oc1ccc(-c2cn3c(C(F)(F)OC)nnc3cn2)cn1)C(F)(F)F` (single isomer, unassigned) [Compound 14], above 70%.
Under `COC(F)(F)c1nnc2cnc(-c3ccc(O[C@H](C)C(C)(F)F)nc3)cn12` (single isomer, unassigned) [Compound 15] stands above 70%.
Consider `COC(F)(F)c1nnc2cnc(-c3ccc(O[C@@H](C)C(C)(F)F)nc3)cn12` (single isomer, unassigned) [Compound 16], for which the inhibition at 1 µM lay in the range of 30 to 70%.
As for `CCOC(F)(F)c1nnc2cnc(-c3ccc(O[C@H](CC)C(F)(F)F)nc3)cn12` (single isomer, unassigned) [Compound 19], the figure is above 70%; as for `CCOC(F)(F)c1nnc2cnc(-c3ccc(O[C@@H](CC)C(F)(F)F)nc3)cn12` (single isomer, unassigned) [Compound 20], above 70%; as for `CCOC(F)(F)c1nnc2cnc(-c3ccc(O[C@H](C)C(F)F)nc3)cn12` (single isomer, unassigned) [Compound 23], above 70%.
Under `CCOC(F)(F)c1nnc2cnc(-c3ccc(O[C@@H](C)C(F)F)nc3)cn12` (single isomer, unassigned) [Compound 24] stands above 70%.
On to `CCOC(F)(F)c1nnc2cnc(-c3ccc(O[C@H](C(C)C)C(F)(F)F)nc3)cn12` (single isomer, unassigned) [Compound 25], for which the inhibition at 1 µM was above 70%.
Under `CCOC(F)(F)c1nnc2cnc(-c3ccc(O[C@@H](C(C)C)C(F)(F)F)nc3)cn12` (single isomer, unassigned) [Compound 26] stands 30 to 70%; under `COC(F)(F)c1nnc2cnc(-c3ccc(O[C@@H](C(C)C)C(F)(F)F)nc3)cn12` (single isomer, unassigned) [Compound 27], above 70%; under `COC(F)(F)c1nnc2cnc(-c3ccc(O[C@H](C(C)C)C(F)(F)F)nc3)cn12` (single isomer, unassigned) [Compound 28], above 70%.
Under `CCOC(F)(F)c1nnc2cnc(-c3ccc(O[C@H](C4CC4)C(F)(F)F)nc3)cn12` (single isomer, unassigned) [Compound 29] stands above 70%.
Regarding `CCOC(F)(F)c1nnc2cnc(-c3ccc(O[C@@H](C4CC4)C(F)(F)F)nc3)cn12` (single isomer, unassigned) [Compound 30], the inhibition at 1 µM is above 70%.
On to `C[C@@H](Oc1ccc(-c2cn3c(C(F)(F)OC4CC4)nnc3cn2)cn1)C(F)(F)F` [Compound 1, (R)-3-(cyclopropoxydifluoromethyl)-6-(6-((1,1,1-trifluoropropan-2-yl)oxy)pyridin-3-yl)-[1,2,4]triazolo[4,3-a]pyrazine], for which the inhibition at 1 µM is above 70%.
As for `C[C@H](Oc1ccc(-c2cn3c(C(F)(F)OC4CC4)nnc3cn2)cn1)C(F)(F)F` [Compound 2, (S)-3-(cyclopropoxydifluoromethyl)-6-(6-((1,1,1-trifluoropropan-2-yl)oxy)pyridine-3-yl)-[1,2,4]triazolo[4,3-a]pyrazine], the figure is above 70%.
Under `CCOC(F)(F)c1nnc2cnc(-c3ccc(O[C@@H](C)C(F)(F)F)nc3)cn12` [Compound 3, (S)-3-(ethoxydifluoromethyl)-6-(6-((1,1,1-trifluoropropan-2-yl)oxy)pyridin-3-yl)-[1,2,4]triazolo[4,3-a]pyrazine] stands above 70%; under `CCOC(F)(F)c1nnc2cnc(-c3ccc(OC(C4CC4)C(F)(F)F)nc3)cn12` (stereo not drawn) [Compound 4, 6-(6-(1-cyclopropyl-2,2,2-trifluoroethoxy)pyridin-3-yl)-3-(ethoxydifluoromethyl)-[1,2,4]triazolo[4,3-a]pyrazine], above 70%; under `COC(F)(F)c1nnc2cnc(-c3ccc(OC(C(C)C)C(F)(F)F)nc3)cn12` (stereo not drawn) [Compound 7, 3-(difluoro(methoxy)methyl)-6-(6-((1,1,1-trifluoro-3-methylbutan-2-yl)oxy)pyridin-3-yl)-[1,2,4]triazolo[4,3-a]pyrazine], above 70%.
As for `CCCOC(F)(F)c1nnc2cnc(-c3ccc(OCC(F)(F)F)nc3)cn12` [Compound 8, 3-[difluoro(propoxy)methyl]-6-[6-(2,2,2-trifluoroethoxy)-3-pyridyl]-[1,2,4]triazolo[4,3-a]pyrazine], the figure is above 70%.
For the molecule `CC(C)OC(F)(F)c1nnc2cnc(-c3ccc(OCC(F)(F)F)nc3)cn12` [Compound 11, 3-[difluoro(isopropoxy)methyl]-6-[6-(2,2,2-trifluoroethoxy)-3-pyridyl]-[1,2,4]triazolo[4,3-a]pyrazine], the inhibition at 1 µM was above 70%.
As for `COC(F)(F)c1nnc2cnc(-c3ccc(OC4CC(F)(F)C4(F)F)nc3)cn12` (stereo not drawn) [Compound 12, 3-(difluoro(methoxy)methyl)-6-(6-(2,2,3,3-tetrafluorocyclobutoxy)pyridin-3-yl)-[1,2,4]triazolo[4,3-a]pyrazine], the inhibition at 1 µM is above 70%.
As for `CCCOC(F)(F)c1nnc2cnc(-c3ccc(O[C@H](C)C(F)(F)F)nc3)cn12` [Compound 17, 3-[difluoro(propoxy)methyl]-6-[6-[(1R)-2,2,2-trifluoro-1-methyl-ethoxy]-3-pyridyl]-[1,2,4]triazolo[4,3-a]pyrazine], the figure is above 70%; as for `CC(C)OC(F)(F)c1nnc2cnc(-c3ccc(O[C@H](C)C(F)(F)F)nc3)cn12` [Compound 18, 3-[difluoro(isopropoxy)methyl]-6-[6-[(1R)-2,2,2-trifluoro-1-methyl-ethoxy]-3-pyridyl]-[1,2,4]triazolo[4,3-a]pyrazine], above 70%.
In the case of `CCCOC(F)(F)c1nnc2cnc(-c3ccc(O[C@@H](C)C(F)(F)F)nc3)cn12` [Compound 21, (S)-3-(difluoro(propoxy)methyl)-6-(6-((1,1,1-trifluoropropan-2-yl)oxy)pyridin-3-yl)-[1,2,4]triazolo[4,3-a]pyrazine], the inhibition at 1 µM is above 70%.
As for `CC(C)OC(F)(F)c1nnc2cnc(-c3ccc(O[C@@H](C)C(F)(F)F)nc3)cn12` [Compound 22, (S)-3-(difluoro(isopropoxy)methyl)-6-(6-((1,1,1-trifluoropropan-2-yl)oxy)pyridin-3-yl)-[1,2,4]triazolo[4,3-a]pyrazine], the figure is above 70%.

The record behind these values is patent publication US12655151B2, “Ion channel modulators” (Praxis Precision Medicines, Inc., priority 2019, dated 2026).
